The values that follow come from patent US9504702B2, “Methods of inhibition of protein fucosylation in vivo using fucose analogs” (Seattle Genetics, Inc., priority 2010, dated 2016).

Assay [1] concerns antibody core fucosylation (CHO DG44 cell line producing humanized IgG1 anti-CD70 antibody h1F6). In words: Inhibition of antibody core fucosylation in CHO DG44 cell culture producing h1F6. The assay is classed as cell-based. Particulars: day 5, CHO DG44 h1F6; for Inhibition at 50 μM: 50 μM fucose analog, read-out: Inhibition at 50 μM; for inhibition at 1000 µM: 1 mM fucose analog. The essentials:
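CHO DG44 cells producing h1F6 were seeded at 7.5×10^5 cells/mL in medium with IGF, penicillin and streptomycin plus fucose analog at 50 μM or 1 mM, grown at 37 °C, 5% CO2 with shaking. On day 5 the antibody was purified from supernatant by protein A and eluted, then neutralized with Tris pH 8.0.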

In assay [2] the test system is LS174T colon adenocarcinoma cells. Kind of assay: Xenograft of LS174T cells without prior treatment (Example 7, Study 3). In kind it is in vivo, female nude mice. As for the experimental part:
In a third study, tumor cells were implanted without prior treatment with a fucose analog. LS174T colon adenocarcinoma cells (5×10^5 cells in 25% Matrigel) were implanted subcutaneously into female nude mice. Mice were supplied with 50 mM 2-fluorofucose (SGD-2083) in their drinking water from 7 days before implant until 21 days after implant, or were supplied with regular drinking water.

Assay [3] has as its system HL-60 acute mylogenous leukemia. Kind of assay: Xenograft of pre-treated HL-60 cells (Example 7, Study 2). The assay is classed as in vivo, female SCID mice. To be noted: 20 mM in drinking water. As for the experimental part: To further evaluate the activity of these fucose analogs, further studies were performed in vivo using tumor cells that had been pre-treated by culturing in the presence of a fucose analog, or using untreated tumor cells. Tumor cells were implanted into 10 mice per group as follows. For the LS174T, PC-3, and Caki-1 cell lines, 5×10^5 cells in 25% Matrigel were implanted subcutaneously into female nude mice. For HL-60 and Ramos cell lines, 5×10^6 cells were implanted subcutaneously into female SCID mice. For mice implanted with untreated tumor cells, mice were provided regular drinking water. For mice implanted with tumor cells pre-treated with 2-fluorofucose (SGD-2083), the mice were provided drinking water supplemented with 20 mM 2-fluorofucose (SGD-2083). For mice implanted with tumor cells pre-treated with alkylnyl fucose (SGD-1887), the mice were provided with regular drinking water.
After 3 weeks of receiving 2-fluorofucose-containing drinking water, mice were returned to regular drinking water, except for mice with Caki-1 tumors. The latter mice were returned to regular drinking water for one week. After the week of receiving regular water, mice were randomized to two groups of 5 each to receive drinking water supplemented with 20 mM 2-fluorofucose or regular drinking water. Mice were sacrificed when tumors reached about 1000 mm^3.

In assay [4] the test system is antibody core fucosylation (antibodies that did not bind to KLH, recovered from protein A column). The assay is classed as in vivo. To be noted: 100 mM in drinking water for 14 days; non-KLH antibodies; dot blot; untreated 81%. As for the experimental part: Female BALB/c mice were immunized with Keyhole Limpet Hemocyanin (KLH) 30-60 days prior to starting this study. For the first study, mice were dosed ip with 150 mg/kg of alkynyl fucose (SGD-1887), alkynyl fucose peracetate (SGD-1890), 2-fluorofucose (SGD-2083), or 2-fluorofucose triacetate (SGD-2084) daily for 7 days or were untreated. On day 2, mice were also boosted with KLH. On the day after the last ip dose, mice were terminally bled and serum obtained. For the second study, mice were given 100 mM of 2-fluorofucose (SGD-2083) in their drinking water or given untreated water for 7 days, boosted with KLH, and continued with 100 mM 2-fluorofucose containing drinking water or untreated water for 7 more days before being terminally bled. Serum was then obtained. No mice died in either study. For both studies, serum was passed over a commercial anti-KLH affinity column to obtain KLH-specific polyclonal antibodies. […]
Dot blots: 0.5 μg each of antibodies from untreated and treated animals, as well as standards of antibody cAC10 having known amounts of core fucosylation (0 to 100% fucose), were blotted onto a nitrocellulose membrane. […] Gel loading (visible) and fucose signals (bioluminescence) were measured with an Alpha Innotech camera and quantitated with the machine software.

The test system of assay [5] is circulating white blood cells and neutrophils; lymph nodes. In words: Leukocytosis and lymph node cellularity following oral dosing. The assay is classed as in vivo, Female Balb/c mice. As for the experimental part: The effects of a fucose analog on leukocytosis and E-selectin binding were eamined in mice. Female Balb/c mice were given oral 2-fluorofucose (SGD-2083) in the drinking water or left untreated. Mice were bled prior to dosing and then weekly for three weeks to assess circulating cell numbers and their ability to bind E-selectin. In one study, 2-fluorofucose was formulated at 1 mM, 10 mM or 100 mM in the drinking water (n=3 per group). At day 14, mice were treated with TiterMAX® Classic adjuvant (Sigma) to stimulate polyclonal, antigen non-specific antibody production by B cells, and remained on the 2-fluorofucose-containing water through day 21. In a second study, mice were given oral 2-fluorofucose formulated at 10 mM and 100 mM in the drinking water for three weeks without any other treatments (n=6). On day 21, a pool of lymph nodes (axillary, brachial, superficial inguinal, and mesenteric) from each of three animals was assessed in addition to blood. Lymph nodes were homogenized into single cell suspensions, and total cell numbers were determined by counting on a hemcytometer, using Trypan Blue for dead cell exclusion. To determine total white cell numbers/μL blood, samples of blood from individual animals were counted on a hemacytometer, using Turk's solution (0.01% gentian violet in 3% acetic acid) to exclude red blood cells (RBCs). RBCs were eliminated from the remainder of the blood by osmotic lysis for flow cytometric analysis. Cells were incubated with anti-Gr-1-FITC antibodies (BD Biosciences) to identify neutrophils, and a recombinant E-selectin-human Fc fusion protein (R&D Systems). Cells were washed and then incubated with a PE-labeled goat anti-human IgG-Fc secondary antibody (Jackson Immunoresearch) to detect bound E-selectin. Samples were collected on a FACSCalibur flow cytometer and analyzed using CellQuest software. The percentage of Gr-1+ cells was determined and absolute number of neutrophils was calculated using the total white cell number from the hemacytometer count. In addition, flow samples were gated for Gr-1+ cells to assess E-selectin binding to neutrophils by histogram analysis. The geometric mean of the E-selectin fluorescent signal was determined from the histogram.

Like-named read-outs stand apart in the source and are kept apart here. Bounds are passed on as bounds.

By Inhibition is commonly meant the share of the control response that was lost under treatment. Usually inhibition stands for the percentage by which the read-out fell short of the control. Take `C#CC(OC(C)=O)[C@@H](OC(C)=O)[C@@H](OC(C)=O)[C@@H](C=O)OC(C)=O` (stereo partly drawn) [SGD-1890, 5-ethynylarabinose tetraacetate]: in assay [1] (120 h), the Inhibition at 50 μM was greater than 80% and the inhibition at 1000 µM was greater than 80%.
For `C[C@H](O)[C@@H](O)[C@@H](O)[C@H](F)C=O` [SGD-2083, 2-fluoro-2-deoxy fucose], the tumor growth result in assay [2] (50 mM in drinking water) is “substantial inhibition of tumor growth”; in assay [3], “No change in tumor growth”. Besides, the average tumor size in assay [2] (50 mM in drinking water from 7 days before until 21 days after implant, regular water 734 mm^3) is given as 110 mm^3. For the same compound, the Inhibition at 50 μM in assay [1] (CHO-DG44, 120 h) was greater than 80%. In addition, the inhibition at 1000 µM in assay [1] (CHO-DG44, 120 h) was greater than 80%. Besides, the “fucosylation levels (average, treated animals)” value in assay [4] came to 7%. Besides, the “effect on circulating white blood cells and neutrophils” value in assay [5] (1 mM in drinking water) is “very little effect”; in assay [5] (10 mM and 100 mM in drinking water), “increasing effect”. In addition, the “cellularity in the lymph nodes” value in assay [5] (day 21, second study, 10 mM and 100 mM in drinking water, more severe at 100 mM) is given as “marked decreased”. Moreover, the “circulating white blood cells and neutrophils” value in assay [5] (oral in drinking water, dose-dependent) is listed as “increase”.
